Residue numbers refer to the chain shown, from its start.
How the values were obtained:
[1] = molecular target: T1, IDH2 R172K (Homo sapiens, UniProt P48735, R172K); experiment: IDH2 R172K enzymatic assay (NADPH cofactor depletion, diaphorase/resazurin readout); type: biochemical; settings: read-out: Enz R172K
T1 sequence (P48735 40-452 R172K): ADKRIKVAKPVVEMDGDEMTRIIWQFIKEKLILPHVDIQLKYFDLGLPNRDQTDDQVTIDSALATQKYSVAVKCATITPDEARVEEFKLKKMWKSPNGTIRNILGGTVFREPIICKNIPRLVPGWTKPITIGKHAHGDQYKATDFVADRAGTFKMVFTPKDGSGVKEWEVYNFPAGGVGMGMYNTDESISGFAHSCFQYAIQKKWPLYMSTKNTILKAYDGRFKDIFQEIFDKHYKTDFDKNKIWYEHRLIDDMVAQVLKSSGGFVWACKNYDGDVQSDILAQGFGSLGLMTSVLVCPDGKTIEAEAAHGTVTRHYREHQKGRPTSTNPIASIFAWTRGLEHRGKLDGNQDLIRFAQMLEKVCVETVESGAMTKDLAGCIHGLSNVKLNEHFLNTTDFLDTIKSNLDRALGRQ
Procedure, shortened: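 Cofactor depletion format: enzyme + compound 1 h RT; add substrate mix (50 μM NADPH, 6.3 mM α-KG); react 1 h RT; quench with stop mix (36 μg/ml diaphorase, 60 μM resazurin); read resorufin fluorescence as residual NADPH.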

[2] = molecular target: T2, IDH2 R140Q (Homo sapiens, UniProt P48735, R140Q); experiment: IDH2 R140Q enzymatic assay (cofactor depletion, similar format); type: biochemical; settings: read-out: Enz R140Q
T2 sequence (P48735 40-452 R140Q): T1 sequence (P48735 40-452 R172K) with R101Q, K133R

[3] = tested on: U87MG pLVX-IDH2 R140Q-neo cells; experiment: U87MG pLVX-IDH2 R140Q-neo cell based assay, 2-HG in media by LC-MS at 48 hours; settings: Homo sapiens, U-87 MG
Procedure, shortened: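 2-HG secreted into the medium was measured by LC-MS after 48 h of compound treatment (0.2% DMSO final) of U87MG pLVX-IDH2 R140Q-neo cells in DMEM/10% FBS. The same wells were assayed at 72 h by CellTiter-Glo luminescence for effects on growth.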

IC50 [1] | IC50 [2] | IC50 [3] | SMILES
0.1 to 1 µM | 0.1 to 1 µM | < 0.1 µM | CC(C)Nc1nc(Nc2cccc(S(C)(=O)=O)c2)nc(-c2nc(C(F)(F)F)ccc2F)n1 [Compound 484, 6-(3-fluoro-6-(trifluoromethyl)pyridin-2-yl)-N2-isopropyl-N4-(3-(methylsulfonyl)phenyl)-1,3,5-triazine-2,4-diamine]
< 0.1 µM | 0.1 to 1 µM | < 0.1 µM | CC(C)Nc1nc(Nc2cccc(S(=O)(=O)NCC(F)(F)F)c2)nc(-c2cccc(Cl)n2)n1 [Compound 518, 3-[4-(6-Chloro-pyridin-2-yl)-6-isopropylamino-[1,3,5]triazin-2-ylamino]-N-(2,2,2-trifluoro-ethyl)-benzenesulfonamide]
0.1 to 1 µM | < 0.1 µM | 0.1 to 1 µM | CC(C)Nc1nc(Nc2ccccc2)nc(-c2cccc(Cl)c2)n1 [Compound 158]
< 0.1 µM | < 0.1 µM | < 0.1 µM | CC(C)Nc1nc(Nc2ccccc2)nc(-c2cccc(C(F)(F)F)n2)n1 [Compound 247, N^2-isopropyl-N^4-phenyl-6-(6-(trifluoromethyl)pyridin-2-yl)-1,3,5-triazine-2,4-diamine]
< 0.1 µM | < 0.1 µM | < 0.1 µM | CC(C)Nc1nc(Nc2ccccc2)nc(-c2ccccc2Cl)n1 [Compound 121]
< 0.1 µM | 0.1 to 1 µM | < 0.1 µM | CC(C)Nc1nc(Nc2ccnc(C(F)F)c2)nc(-c2cccc(C(C)(F)F)n2)n1 [Compound 675, 6-[6-(1,1-Difluoro-ethyl)-pyridin-2-yl]-N-(2-difluoromethyl-pyridin-4-yl)-N′-isopropyl-[1,3,5]triazine-2,4-diamine]
< 0.1 µM | 0.1 to 1 µM | < 0.1 µM | CC(C)Nc1nc(Nc2ccnc(C(C)(C)C#N)c2)nc(-c2cccc(C(F)(F)F)n2)n1 [Compound 671, 2-{4-[4-Isopropylamino-6-(6-trifluoromethyl-pyridin-2-yl)-[1,3,5]triazin-2-ylamino]-pyridin-2-yl}-2-methyl-propionitrile]
0.1 to 1 µM | < 0.1 µM | < 0.1 µM | CC(C)C(=O)Nc1nc(Nc2ccccc2)nc(-c2ccccc2)n1 [Compound 167]
< 0.1 µM | 0.1 to 1 µM | < 0.1 µM | COCC(C)Nc1nc(Nc2ccnc(C(F)(F)F)c2)nc(-c2cccc(Cl)n2)n1 (stereo not drawn) [Compound 499, 6-(6-Chloro-pyridin-2-yl)-N-(2-methoxy-1-methyl-ethyl)-N′-(2-trifluoromethyl-pyridin-4-yl)-[1,3,5]triazine-2,4-diamine]
1 to 10 µM | 0.1 to 1 µM | 0.1 to 1 µM | CCOCCNc1nc(Nc2ccncc2)nc(-c2ccccc2)n1 [Compound 262, N^2-(2-ethoxyethyl)-6-phenyl-N^4-(pyridin-4-yl)-1,3,5-triazine-2,4-diamine]
0.1 to 1 µM | < 0.1 µM | 0.1 to 1 µM | CCC(=O)Nc1nc(Nc2ccccc2)nc(-c2ccccc2)n1 [Compound 209, N-(4-phenyl-6-(phenylamino)-1,3,5-triazin-2-yl)propionamide]
0.1 to 1 µM | < 0.1 µM | < 0.1 µM | CC(C)(C)OC(=O)Nc1nc(Nc2ccccc2)nc(-c2ccccc2)n1 [Compound 416, Tert-butyl 4-phenyl-6-(phenylamino)-1,3,5-triazin-2-ylcarbamate]
0.1 to 1 µM | < 0.1 µM | 0.1 to 1 µM | CC(C)Nc1nc(Nc2ccccc2)nc(-c2cc(C(F)(F)F)ccn2)n1 [Compound 270, N^2-isopropyl-N^4-phenyl-6-(4-(trifluoromethyl)pyridin-2-yl)-1,3,5-triazine-2,4-diamine]
< 0.1 µM | < 0.1 µM | < 0.1 µM | Clc1cccc(Nc2nc(NC3CCOCC3)nc(-c3ccccc3)n2)c1 [Compound 173]
< 0.1 µM | 0.1 to 1 µM | < 0.1 µM | CC(C)Nc1nc(Nc2ccnc(C(F)(F)F)c2)nc(-c2cccc(N)n2)n1 [Compound 687, 6-(6-aminopyridin-2-yl)-N2-isopropyl-N4-(2-(trifluoromethyl)pyridin-4-yl)-1,3,5-triazine-2,4-diamine]
< 0.1 µM | < 0.1 µM | < 0.1 µM | COc1cccc(-c2nc(Nc3ccnc(C(F)(F)F)c3)nc(NC(C)C)n2)c1F [Compound 631, 6-(2-Fluoro-3-methoxy-phenyl)-N-isopropyl-N′-(2-trifluoromethyl-pyridin-4-yl)-[1,3,5]triazine-2,4-diamine]
0.1 to 1 µM | < 0.1 µM | 0.1 to 1 µM | CC(C)(C)COC(=O)Nc1nc(Nc2ccccc2)nc(-c2ccccc2)n1 [Compound 208, Neopentyl 4-phenyl-6-(phenylamino)-1,3,5-triazin-2-ylcarbamate]
< 0.1 µM | 0.1 to 1 µM | < 0.1 µM | CC(C)Nc1nc(Nc2cc(F)cc(F)c2)nc(-c2cccc(C(C)(F)F)n2)n1 [Compound 583, 6-(6-(1,1-difluoroethyl)pyridin-2-yl)-N2-(3,5-difluorophenyl)-N4-isopropyl-1,3,5-triazine-2,4-diamine]
0.1 to 1 µM | < 0.1 µM | 0.1 to 1 µM | CC(C)OC(=O)Nc1nc(Nc2ccccc2)nc(-c2ccccc2)n1 [Compound 160, isopropyl 4-phenyl-6-(phenylamino)-1,3,5-triazin-2-ylcarbamate]
< 0.1 µM | 0.1 to 1 µM | < 0.1 µM | CC(C)Nc1nc(Nc2cc(F)cc(F)c2)nc(-c2ccnc(N)n2)n1 [Compound 482, 6-(2-Amino-pyrimidin-4-yl)-N-(3,5-difluoro-phenyl)-N′-isopropyl-[1,3,5]triazine-2,4-diamine]
< 0.1 µM | 0.1 to 1 µM | < 0.1 µM | CC(C)(C)Nc1nc(Nc2cc(F)cc(F)c2)nc(-c2cccc(C(C)(F)F)n2)n1 [Compound 585, N2-(tert-butyl)-6-(6-(1,1-difluoroethyl)pyridin-2-yl)-N4-(3,5-difluorophenyl)-1,3,5-triazine-2,4-diamine]
0.1 to 1 µM | < 0.1 µM | < 0.1 µM | Fc1cc(Nc2nc(NC3[C@H]4COC[C@@H]34)nc(-c3ccccc3F)n2)ccn1 (stereo partly drawn) [Compound 636, 6-(2-Fluoro-phenyl)-N-(2-fluoro-pyridin-4-yl)-N′-(3-oxa-bicyclo[3.1.6]hex-6-yl)-[1,3,5]triazine-2,4-diamine]
< 0.1 µM | 0.1 to 1 µM | < 0.1 µM | CC(F)(F)c1cccc(-c2nc(NCC3CC3)nc(Nc3ccnc(C(F)(F)F)c3)n2)n1 [Compound 595, N2-(cyclopropylmethyl)-6-(6-(1,1-difluoroethyl)pyridin-2-yl)-N4-(2-(trifluoromethyl)pyridin-4-yl)-1,3,5-triazine-2,4-diamine]
< 0.1 µM | 0.1 to 1 µM | < 0.1 µM | CC(C)(C)Nc1nc(Nc2cc(F)cc(S(C)(=O)=O)c2)nc(-c2cccc(C(C)(F)F)n2)n1 [Compound 616, N2-(tert-butyl)-6-(6-(1,1-difluoroethyl)pyridin-2-yl)-N4-(3-fluoro-5-(methylsulfonyl)phenyl)-1,3,5-triazine-2,4-diamine]
< 0.1 µM | < 0.1 µM | < 0.1 µM | CC(C)Nc1nc(Nc2ccnc(C(F)(F)F)c2)nc(-c2cccc(O)c2)n1 [Compound 640, 3-[4-Isopropylamino-6-(2-trifluoromethyl-pyridin-4-ylamino)-[1,3,5]triazin-2-yl]-phenol]
0.1 to 1 µM | < 0.1 µM | < 0.1 µM | Cc1cc(-c2nc(Nc3cccc(F)c3)nc(NC(C)C)n2)no1 [Compound 472, N-(3-Fluoro-phenyl)-N′-isopropyl-6-(5-methyl-isoxazol-3-yl)-[1,3,5]triazine-2,4-diamine]
0.1 to 1 µM | < 0.1 µM | < 0.1 µM | CC(C)Nc1nc(Nc2cccc(S(=O)(=O)N(C)C)c2)nc(-c2ccccc2)n1 [Compound 177, 3-(4-(isopropylamino)-6-phenyl-1,3,5-triazin-2-ylamino)-N,N-dimethylbenzenesulfonamide]
0.1 to 1 µM | 0.1 to 1 µM | < 0.1 µM | CS(=O)(=O)c1cccc(Nc2nc(NCC3CC3)nc(-c3cccc(C(F)(F)F)n3)n2)c1 [Compound 607, N2-(cyclopropylmethyl)-N4-(3-(methylsulfonyl)phenyl)-6-(6-(trifluoromethyl)pyridin-2-yl)-1,3,5-triazine-2,4-diamine]

From patent publication US9512107B2, “Therapeutically active compositions and their methods of use” (Agios Pharmaceuticals, Inc., priority 2012, dated 2016)
